Experimental findings from patent US20100160228A1, “METHOD FOR INHIBITING OR STIMULATING ANGIOGENESIS IN AN INDIVIDUAL” (VALTION TEKNILLINEN TUTKIMUSKESKUS, priority 2007, published 2010) are described below.

What all share (format): cell-based, human
In one assay the test system is VEGFR2. Kind of assay: VEGFR2 internalization assay in HUVEC (microscopy, cold trypsin protection). To be noted: for effect on VEGFR2 internalization in confluent cells: confluent HUVEC, peptide 200 nM, FIG. 10C. As to the method:
(§1) FIG. 3. TCPTP activity controls VEGF-dependent responses in endothelial cells. (A) HUVEC were transfected with the constitutively active TCPTP (TC37) or vector control (pCG), stimulated or not with VEGF, and stained for VEGFR2 (red) and nuclei (blue) after fixation and permeabilization. Arrows indicate VEGFR2 vesicles. (B) HUVEC were treated as in (A) and subjected to trypsin digestion on ice. VEGFR2 protected from trypsin (=internalized pool) was detected by immunoblotting. The intensities of VEGFR2 bands were quantified and are expressed relative to pCG-VEGF control. A representative experiment out of 2 with similar results is shown. (C) HUVEC were transfected with no oligo, siRNA against TCPTP or a control siRNA, and TCPTP expression was measured using immunoblotting. Cells were treated with 80 ng/ml VEGF and proliferation of sparse cells plated on gelatin was assayed after 16 h using BrdU-based assay (mean±SD; n=4-6; *, p<0.05). (D) HUVEC were transfected as in (A) and chemotaxis towards VEGF was measured using a Transwell assay for 4 hours. Cells adhering to the bottom of the filter were fixed and stained with crystal violet. Number of migrated cells was counted (mean±SEM, n=3).
FIG. 7. TCPTP activation through the cytoplasmic domain of α1 integrin inhibits internalization of VEGFR2. […] VEGFR2 staining in the perinuclear area of cells (mean±SEM, n=30) was analyzed from blinded samples using densitometry and scored from 0 to 4 (0=no staining, 4=highest expression). […] VEGFR2 protected from trypsin (=internalized pool) was detected by immunoblotting. The intensity of VEGFR2 bands was quantified using densitometry and expressed as arbitrary units. […]
FIG. 10. […] (B) Confluent HUVEC on gelatin were treated with VEGF in the presence or absence of α1TAT or ScrTAT peptide and the number of live cells was detected using WST-1 reagent (mean±SD, n=3). […] The intensity of VEGFR2 bands was quantitated using densitometry (a representative experiment out of 3 with similar results is shown).
VEGFR2 internalization assay. […] The amount of VEGFR2 in each sample was analyzed using immunoblotting.

Assay [1] relates to HUVEC. Kind of assay: Time-lapse chemokinesis assay. Conditions: HUVEC on gelatin, 4 hours time-lapse, peptide 200 nM, FIG. 5B. As to the method: (§2) FIG. 5. Controlled TCPTP activation inhibits VEGF-driven capillary formation, chemokinesis and chemotaxis. (A) HUVEC were cultured in fibrin gels and treated with or without VEGF and TAT peptides (200 nM). After 24 h the formation of capillary tubes was semiquantitatively scored. (B) HUVEC were plated on gelatin in the presence of the peptides (200 nM) or left untreated for 1 h. The cells were stimulated as indicated and migration of individual cells was tracked using time-lapse microscopy. Cumulative migration distance was plotted for randomly picked individual cells. (C) HUVEC were treated with 200 nM peptides and the transmigration assay was performed as in FIG. 3D. (D) HUVEC were transfected with siRNA against TCPTP or a control siRNA, and TCPTP expression was analysed with immunofluorescence. Equal exposures of TCPTP (green) and DAPI (blue) stainings are shown. 48 h post-transfection cells were subjected to transmigration assay as in […].
FIG. 9. TCPTP activation by α1-peptide inhibits VEGF induced chemokinesis. HUVEC were plated on gelatin in the presence of the peptides (200 nM) or left untreated for 1 h. The cells were stimulated as indicated and migration of individual cells was tracked using time-lapse microscopy. Representative images of individual cells overlayed with their migration patterns (different colours) at the indicated time points are shown.
Time-lapse chemokinesis assays. HUVEC were plated on gelatin-coated wells and allowed to attach for 1 h in the presence or absence of 200 nM α1TAT or ScrTAT and 20 ng/ml VEGF. Migration of individual cells was recorded at 5 min intervals for 4 h using 20× objective and digital video recording. The migration pathway of at least ten randomly picked cells was tracked using the Metamorph program. The cumulative migration distances were also plotted.

Assay [2] has as its system HUVEC. Description: Transwell chemotaxis assay towards VEGF. As to the method: as §1, §2
Chemotaxis assays. HUVEC electroporated with the DNA or siRNA or non-transfected HUVEC were treated with 200 nM α1TAT, ScrTAT or left untreated for 1 h. Transwell filters (8 μm pore size, Costar, Cambridge, Mass.) were coated with gelatin and medium (RPMI, 4 mM L-glutamine, 10% FBS) and VEGF (100 ng/ml) were added to the lower chamber. Cells were harvested from the culture plates, and transferred into the Transwell inserts (4×10^5 cells/well) in RPMI with 0.2% soybean trypsin inhibitor. […] The inserts were fixed in 4% paraformaldehyde, cells stained with 0.5% crystal violet and the number of migrated cells was counted using a microscope.

Assay [3] relates to HUVEC. Description: Survival of confluent HUVEC (WST-1). To be noted: confluent HUVEC on gelatin, WST-1, FIG. 10B. As to the method: FIG. 10. […] (A) Serum-starved HUVEC were plated to confluency on gelatin and treated for 1 h with α1 integrin cytoplasmic tail fusion peptide (α1TAT) or TAT-scramble control fusion peptide (ScrTAT) (both at 200 nM) or not treated, followed by VEGF-induction (15 min) when indicated. Cell lysates were immunoblotted for phosphorylated VEGFR2 (or tubulin as a control). (B) Confluent HUVEC on gelatin were treated with VEGF in the presence or absence of α1TAT or ScrTAT peptide and the number of live cells was detected using WST-1 reagent (mean±SD, n=3). (C) α1TAT treatment has no effect on internalization of VEGFR2 in confluent HUVEC. HUVEC were plated to confluency on gelatin, stimulated or not with the TAT peptides (200 nM) and VEGF, and treated with trypsin on ice. Cells were lysed after inactivation of trypsin and the lysates were immunoblotted for detection of VEGFR2 protected from trypsin (=internalized pool). The intensity of VEGFR2 bands was quantitated using densitometry (a representative experiment out of 3 with similar results is shown).
Cell proliferation and survival assays. The number of viable HUVEC was analyzed with WST-1 reagent (Roche). Cell proliferation was measured with BrdU assay (Cell proliferation ELISA Biotrak system, Amersham) from siRNA-transfected HUVEC grown in RPMI1640+1% FBS+2 mM L-glutamine supplemented with 80 ng/ml VEGF.
In general terms: Tetrazolium dyes change colour on reduction, which living cells bring about.

Setting [4] is: HUVEC, 48 h post-transfection, FIG. 5D.

As to “YGRKKRRQRRRWKLGFFKRPLKKKMEK (SEQ ID NO 3) [α1TAT]”, the “effect on VEGFR2 internalization in confluent cells” value in the assay on VEGFR2 was “no effects”. The “internalization of VEGFR2 in HUVEC” value in the assay with VEGFR2 (subconfluent HUVEC, peptide 200 nM 1 h, VEGF 100 ng/ml 15 min, FIG. 7) is given as “specifically inhibited”. Further, in the assay on HUVEC [1], the “inhibition of VEGF-induced chemokinesis” value amounted to 76±4%. In the assay with HUVEC [2] (setting [4]), the “effect on VEGF induced chemotaxis of TCPTP siRNA-treated cells” value is listed as “no inhibitory effects” and the “effect on VEGF-induced migration of scrambled siRNA treated cells” value is “effectively inhibited”. The “inhibition of VEGF-induced chemotaxis of HUVEC” value in the assay on HUVEC [2] (peptide 200 nM, Transwell 4 h, FIG. 5C) is “inhibited”. The “effect on survival of HUVEC in confluent cells” value in the assay on HUVEC [3] was “no effects”.
Consider “YGRKKRRQRRRLKGWRFKLKPKFKEMK (SEQ ID NO 8) [ScrTAT, reference compound]”, for which, in the assay on VEGFR2, the “effect on VEGFR2 internalization in confluent cells” value is given as “no effects”. The “inhibition of VEGF-induced chemokinesis” value in the assay with HUVEC [1] was “no significant effect”. Moreover, in the assay on HUVEC [3], the “effect on survival of HUVEC in confluent cells” value is “no effects”.
